Experiment [1] deals with induction of TAT by dexamethasone in HepG2 cells. As to the kind of experiment: Hep G2 TAT assay (inhibition of dexamethasone-induced TAT). The class given is cell-based, human. To be noted: challenge of 100 nM dexamethasone, IC50 converted to Ki by Cheng and Prusoff equation.
Experiment [2] concerns the target glucocorticoid receptor (GR) recombinant ligand binding domain (LBD) (Homo sapiens (Human), UniProt P04150). As to the kind of experiment: GR binding fluorescence polarisation (FP) assay. To be noted: displacement of fluorescently tagged ligand. The procedure:
Binding of test compounds to the glucocorticoid receptor (GR) is determined using a fluorescence polarisation (FP) assay utilising a recombinant ligand binding domain (LBD) of GR. The test compounds are assessed by their ability to displace a fluorescently tagged ligand and detection of the resulting decrease in fluorescence polarisation.

Chain of glucocorticoid receptor (GR) recombinant ligand binding domain (LBD) (P04150 524-758): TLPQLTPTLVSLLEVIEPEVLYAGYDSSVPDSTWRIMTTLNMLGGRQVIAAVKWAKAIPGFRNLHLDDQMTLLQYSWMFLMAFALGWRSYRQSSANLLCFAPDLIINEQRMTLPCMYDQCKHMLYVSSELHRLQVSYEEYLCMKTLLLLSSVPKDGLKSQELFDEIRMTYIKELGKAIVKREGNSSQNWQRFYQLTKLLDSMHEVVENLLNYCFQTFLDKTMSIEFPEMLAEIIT

Compound `Cc1cc2c(cnn2-c2cnn(C3CC3)c2)cc1C1(Cc2ccccc2)CCN(S(=O)(=O)c2cnn(C)n2)C1` (centres unmarked) [Example 252, 5-(3-benzyl-1-((2-methyl-2H-1,2,3-triazol-4-yl)sulfonyl)pyrrolidin-3-yl)-1-(1-cyclopropyl-1H-pyrazol-4-yl)-6-methyl-1H-indazole] returned an inhibitory constant (Ki) in experiment [1] of 0.094 µM. Besides, the IC50 in experiment [2] came to 0.029 µM.

Compound `Cc1cc2c(cnn2-c2cnn(C)c2C)cc1C1(Cc2ccccc2)CCN(S(=O)(=O)c2cnn(C)n2)C1` (centres unmarked) [Example 253, 5-(3-benzyl-1-((2-methyl-2H-1,2,3-triazol-4-yl)sulfonyl)pyrrolidin-3-yl)-1-(1,5-dimethyl-1H-pyrazol-4-yl)-6-methyl-1H-indazole] registered an inhibitory constant (Ki) in experiment [1] of 0.24 µM. For the same compound, in experiment [2], the IC50 is 0.024 µM.

`Cc1cc2c(cnn2-c2cnn(C(F)(F)F)c2)cc1C1(Cc2ccccc2)CCN(S(=O)(=O)c2cnn(C)n2)C1` (centres unmarked) [Example 254, 5-(3-benzyl-1-((2-methyl-2H-1,2,3-triazol-4-yl)sulfonyl)pyrrolidin-3-yl)-6-methyl-1-(1-(trifluoromethyl)-1H-pyrazol-4-yl)-1H-indazole] gave a Ki in experiment [1] of 0.044 µM. Further, the IC50 in experiment [2] was determined as 0.087 µM.

Compound `Cc1cc2c(cnn2-c2cnn(C(F)F)c2)cc1C1(Cc2ccccc2)CCN(S(=O)(=O)c2cnn(C)n2)C1` (centres unmarked) [Example 255, 5-(3-benzyl-1-((2-methyl-2H-1,2,3-triazol-4-yl)sulfonyl)pyrrolidin-3-yl)-1-(1-(difluoromethyl)-1H-pyrazol-4-yl)-6-methyl-1H-indazole] returned an inhibition constant (Ki) in experiment [1] of 0.044 µM. The half-inhibitory concentration (IC50) in experiment [2] was determined as 0.027 µM.

`Cc1cc2c(cnn2-c2cn(C)nc2C)cc1C1(Cc2ccccc2)CCN(S(=O)(=O)c2cnn(C)n2)C1` (centres unmarked) [Example 257, 5-(3-benzyl-1-((2-methyl-2H-1,2,3-triazol-4-yl)sulfonyl)pyrrolidin-3-yl)-1-(1,3-dimethyl-1H-pyrazol-4-yl)-6-methyl-1H-indazole] gave a Ki in experiment [1] of 0.22 µM. In experiment [2], the IC50 was determined as 0.052 µM.

As to `CCn1cc(-n2ncc3cc(C4(Cc5ccccc5)CCN(S(=O)(=O)c5cnn(C)n5)C4)c(C)cc32)cn1` (centres unmarked) [Example 258, 5-(3-benzyl-1-((2-methyl-2H-1,2,3-triazol-4-yl)sulfonyl)pyrrolidin-3-yl)-1-(1-ethyl-1H-pyrazol-4-yl)-6-methyl-1H-indazole], the Ki in experiment [1] is 0.076 µM. In experiment [2], the IC50 came out at 0.031 µM.

`Cc1cc2c(cnn2-c2ccn(C)n2)cc1C1(Cc2ccccc2)CCN(S(=O)(=O)c2cnn(C)n2)C1` (centres unmarked) [Example 259, 5-(3-benzyl-1-((2-methyl-2H-1,2,3-triazol-4-yl)sulfonyl)pyrrolidin-3-yl)-6-methyl-1-(1-methyl-1H-pyrazol-3-yl)-1H-indazole] gave an inhibition constant (Ki) in experiment [1] of 0.54 µM. In experiment [2], the 50% inhibitory concentration (IC50) was determined as 0.18 µM.

For `Cc1cc2c(cnn2-c2ccnn2C)cc1C1(Cc2ccccc2)CCN(S(=O)(=O)c2cnn(C)n2)C1` (centres unmarked) [Example 260, 5-(3-benzyl-1-((2-methyl-2H-1,2,3-triazol-4-yl)sulfonyl)pyrrolidin-3-yl)-6-methyl-1-(1-methyl-1H-pyrazol-5-yl)-1H-indazole], the Ki in experiment [1] came out at 0.35 µM. Further, the IC50 in experiment [2] amounted to 0.15 µM.

The compound `[2H]C([2H])([2H])n1cc(-n2ncc3cc(C4(Cc5ccccc5)CCN(S(=O)(=O)c5cnn(C)n5)C4)c(C)cc32)ccc1=O` (centres unmarked) [Example 261, 5-(5-(3-benzyl-1-((2-methyl-2H-1,2,3-triazol-4-yl)sulfonyl)pyrrolidin-3-yl)-6-methyl-1H-indazol-1-yl)-1-(methyl-d3)pyridin-2(1H)-one] returned an inhibition constant Ki in experiment [1] of 0.044 µM. Besides, the half-maximal inhibitory concentration (IC50) in experiment [2] worked out at 0.0029 µM.

Regarding `Cc1cc2c(cnn2-c2cc(C3CC3)c(=O)n(C)c2)cc1C1(Cc2ccccc2)CCN(S(=O)(=O)c2cnn(C)n2)C1` (centres unmarked) [Example 262, 5-(5-(3-benzyl-1-((2-methyl-2H-1,2,3-triazol-4-yl)sulfonyl)pyrrolidin-3-yl)-6-methyl-1H-indazol-1-yl)-3-cyclopropyl-1-methylpyridin-2(1H)-one], the inhibition constant (Ki) in experiment [1] came to 0.19 µM. Moreover, in experiment [2], the IC50 stood at 0.28 µM.

On to `CCc1cc(-n2ncc3cc(C4(Cc5ccccc5)CCN(S(=O)(=O)c5cnn(C)n5)C4)c(C)cc32)cn(C)c1=O` (centres unmarked) [Example 263, 5-(5-(3-benzyl-1-((2-methyl-2H-1,2,3-triazol-4-yl)sulfonyl)pyrrolidin-3-yl)-6-methyl-1H-indazol-1-yl)-3-ethyl-1-methylpyridin-2(1H)-one], for which affinity in experiment [1] was put at a Ki of 0.1 µM. The 50% inhibitory concentration (IC50) in experiment [2] came out at 0.11 µM.

Regarding `Cc1cc2c(cnn2-c2cnn(C3COC3)c2)cc1C1(Cc2ccccc2)CCN(S(=O)(=O)c2cnn(C)n2)C1` (centres unmarked) [Example 264, 5-(3-benzyl-1-((2-methyl-2H-1,2,3-triazol-4-yl)sulfonyl)pyrrolidin-3-yl)-6-methyl-1-(1-(oxetan-3-yl)-1H-pyrazol-4-yl)-1H-indazole], in experiment [1], the Ki was 0.21 µM. Moreover, in experiment [2], the IC50 amounted to 0.026 µM.

In turn, `COc1cc2c(cnn2-c2ccc(=O)n(C)c2)cc1C1(Cc2ccccc2)CCN(S(=O)(=O)c2cnn(C)n2)C1` (centres unmarked) [Example 265, 5-(5-(3-benzyl-1-((2-methyl-2H-1,2,3-triazol-4-yl)sulfonyl)pyrrolidin-3-yl)-6-methoxy-1H-indazol-1-yl)-1-methylpyridin-2(1H)-one] returned a Ki in experiment [1] of 0.12 µM. Further, the IC50 in experiment [2] was found to be 0.016 µM.

The compound `Cc1cc2c(cnn2-c2ccc(=O)n(C)c2)cc1C1(Cc2ccccc2)CCN(S(=O)(=O)c2cnn(C)n2)C1` (centres unmarked) [Example 266, 5-(5-(3-benzyl-1-((2-methyl-2H-1,2,3-triazol-4-yl)sulfonyl)pyrrolidin-3-yl)-6-methyl-1H-indazol-1-yl)-1-methylpyridin-2(1H)-one] registered an inhibition constant Ki in experiment [1] of 0.04 µM. In experiment [2], the IC50 was 0.0047 µM.

Consider `Cc1cc2c(cnn2-c2ccc(=O)[nH]c2)cc1C1(Cc2ccccc2)CCN(S(=O)(=O)c2cnn(C)n2)C1` (centres unmarked) [Example 267, 5-(5-(3-benzyl-1-((2-methyl-2H-1,2,3-triazol-4-yl)sulfonyl)pyrrolidin-3-yl)-6-methyl-1H-indazol-1-yl)pyridin-2(1H)-one], for which the Ki in experiment [1] is 0.093 µM. Also, the IC50 in experiment [2] was 0.0056 µM.

As to `Cc1cc2c(cnn2-c2cc(C)c(=O)n(C)c2)cc1C1(Cc2ccccc2)CCN(S(=O)(=O)c2ccc(F)c(F)c2)C1` (centres unmarked) [Example 271, 5-(5-(3-benzyl-1-((3,4-difluorophenyl)sulfonyl)pyrrolidin-3-yl)-6-methyl-1H-indazol-1-yl)-1,3-dimethylpyridin-2(1H)-one], in experiment [1], the Ki is 0.055 µM. In addition, the 50% inhibitory concentration (IC50) in experiment [2] was determined as 0.02 µM.

Compound `Cc1cc2c(cnn2-c2cnn(C)c2)cc1C1(Cc2ccccc2)CCN(S(=O)(=O)c2ccc(F)c(F)c2)C1` (centres unmarked) [Example 272, 5-(3-benzyl-1-((3,4-difluorophenyl)sulfonyl)pyrrolidin-3-yl)-6-methyl-1-(1-methyl-1H-pyrazol-4-yl)-1H-indazole] came in with an inhibitory constant (Ki) in experiment [1] of 0.029 µM. Also, in experiment [2], the IC50 turned out to be 0.022 µM.

In turn, `Cc1cc2c(cnn2-c2ccc(=O)n(C)c2)cc1C1(C(C)c2ccccc2)CCN(S(=O)(=O)c2cnn(C)n2)C1` (centres unmarked) [Example 274, 1-methyl-5-(6-methyl-5-(1-((2-methyl-2H-1,2,3-triazol-4-yl)sulfonyl)-3-(1-phenylethyl)pyrrolidin-3-yl)-1H-indazol-1-yl)pyridin-2(1H)-one] had a Ki in experiment [1] of 0.29 µM. Also, the IC50 in experiment [2] stood at 0.081 µM.

In the case of `Cc1cc2c(cnn2-c2ccc(=O)n(C)c2)cc1C1(Cc2ccccc2)CCN(S(=O)(=O)c2cn(C)nn2)C1` (centres unmarked) [Example 275, 5-(5-(3-benzyl-1-((1-methyl-1H-1,2,3-triazol-4-yl)sulfonyl)pyrrolidin-3-yl)-6-methyl-1H-indazol-1-yl)-1-methylpyridin-2(1H)-one], the Ki in experiment [1] stood at 0.07 µM. In experiment [2], the 50% inhibitory concentration (IC50) was 0.018 µM.

`Cc1cc2c(cnn2-c2ccc(=O)n(C)c2)cc1C1(Cc2ccccc2)CCN(S(=O)(=O)c2ccn(C)n2)C1` (centres unmarked) [Example 276, 5-(5-(3-benzyl-1-((1-methyl-1H-pyrazol-3-yl)sulfonyl)pyrrolidin-3-yl)-6-methyl-1H-indazol-1-yl)-1-methylpyridin-2(1H)-one] came in with an inhibition constant Ki in experiment [1] of 0.052 µM. For the same compound, the IC50 in experiment [2] is 0.0054 µM.

For the compound `Cc1cc2c(cnn2-c2ccc(=O)n(C)c2)cc1C1(Cc2ccccc2)CCN(S(=O)(=O)c2cccnc2)C1` (centres unmarked) [Example 286, 5-(5-(3-benzyl-1-(pyridin-3-ylsulfonyl)pyrrolidin-3-yl)-6-methyl-1H-indazol-1-yl)-1-methylpyridin-2(1H)-one], affinity in experiment [1] was put at a Ki of 0.052 µM. Besides, the 50% inhibitory concentration (IC50) in experiment [2] is 0.011 µM.

`Cc1cc2c(cnn2-c2ccc(=O)n(C)c2)cc1C1(Cc2ccccc2)CCN(S(=O)(=O)c2ccc(F)c(F)c2)C1` (centres unmarked) [Example 287, 5-(5-(3-benzyl-1-((3,4-difluorophenyl)sulfonyl)pyrrolidin-3-yl)-6-methyl-1H-indazol-1-yl)-1-methylpyridin-2(1H)-one]: the Ki in experiment [1] turned out to be 0.025 µM. The concentration for half-maximal inhibition (IC50) in experiment [2] amounted to 0.0067 µM.

`Cc1cc2c(cnn2-c2ccc(=O)n(C)c2)cc1C1(Cc2ccccc2)CCN(S(=O)(=O)c2cn(C)c(C)n2)C1` (centres unmarked) [Example 288] gave a Ki in experiment [1] of 0.11 µM. In addition, in experiment [2], the half-inhibitory concentration (IC50) amounted to 0.033 µM.

Compound `Cc1cc2c(cnn2-c2ccc(=O)n(C)c2)cc1C1(Cc2ccccc2)CCN(S(=O)(=O)C2CC2)C1` (centres unmarked) [Example 289, 5-(5-(3-benzyl-1-(cyclopropylsulfonyl)pyrrolidin-3-yl)-6-methyl-1H-indazol-1-yl)-1-methylpyridin-2(1H)-one] showed a Ki in experiment [1] of 0.069 µM. The half-inhibitory concentration (IC50) in experiment [2] amounted to 0.013 µM.

Compound `Cc1cc2c(cnn2-c2ccc(=O)n(C)c2)cc1C1(Cc2ccccc2)CCN(S(=O)(=O)c2cn(C)cn2)C1` (centres unmarked) [Example 290, 5-(5-(3-benzyl-1-((1-methyl-1H-imidazol-4-yl)sulfonyl)pyrrolidin-3-yl)-6-methyl-1H-indazol-1-yl)-1-methylpyridin-2(1H)-one] came in with an inhibitory constant (Ki) in experiment [1] of 0.2 µM. Further, in experiment [2], the half-inhibitory concentration (IC50) amounted to 0.062 µM.
